The text below walks through data of patent publication US6242482A, “Prostaglandin compounds and derivatives thereof, compositions containing the same and method of using the same for the treatment of congestive heart failure” (priority 2000, dated 2001).

A word on the IC50: it is the concentration needed to halve the response being measured. Low values mean inhibition by little substance, high ones a need for much substance.

In data set [1] the test system is Human Platelet Aggregation (collagen-induced). The data set is described as follows: Anti-aggregatory response after incubation with PPP (Example 8). Type of data set: cell-based. Here is the method:
(§1) Blood from healthy human volunteers who had not taken any medicine for at least 14 days was collected by venopuncture into 3.15% (w/v) tri-sodium citrate (9:1 v/v). The blood was centrifuged at 800 g for 15 minutes to produce PRP. The PRP was further centrifuged at 12,000 g for 1 minute to produce PPP. A total of 12 volunteers donated blood for the study.
(§2) Platelet aggregation was studied using a dual channel Payton aggregometer calibrated with PRP (0%) and PPP (100%) with respect to the degree of light transmission. Aliquots of PRP (500 μl) were added to siliconized cuvettes, stirred (1000 revs/min) and warmed to 37° C. The platelets were incubated for 1 minute to establish a stable baseline prior to investigation. A submaximal concentration of the aggregating agent collagen (1 μg/ml) was added to the PRP and the platelet aggregation was monitored as the increase in light transmission observed over a 4 minute period.
(§3) After the incubation period, an aliquot of the PPP or aqueous vehicle (50 μl) was added to fresh PRP (450 μl) for determination of anti-platelet activity. This experiment was repeated using PPP from at least three human volunteers for each compound.

Data set [2] has the same test system. Nature of the data set: Anti-aggregatory response after incubation with aqueous vehicle (Example 8). Type of data set: cell-based. Particulars: up to 4 hours at 37° C. As to the method: as §1, §2, §3
Data set [3] has as its system mean arterial pressure and heart rate of anesthetized rats. Particulars: for Time of second Δmax (superscript) / Time of Δmax (superscript) / t1/2 / Δmax (Mean Arterial Pressure) / Δmax, second value in parentheses: Table 5; for Mean Arterial Pressure: b338-b348 = 0,1,5,10,15,30,60,120,180,240,360 min. As to the method:
Male Wistar rats (250-330 g) were anesthetized with thiopentone sodium (INTRAVAL®, 120 mg/kg i.p.). The trachea was cannulated to facilitate respiration. The right carotid artery was cannulated and connected to a pressure transducer (Spectramed P23XL), for the measurement of mean arterial pressure (MAP) and heart rate (HR) which were continuously recorded on a 4-channel Grass 7D polygraph recorder (Grass, Mass., U.S.A.). Body temperature was maintained at 37±1°C. by means of a rectal probe thermometer attached to a homeothermic blanket control unit (Harvard Apparatus Ltd.).

For data set [4], the system named is Human Platelet Aggregation (collagen-induced). The data set is described as follows: Anti-aggregatory activity, 1 min incubation with PRP, collagen-induced (Example 8). It is filed as cell-based. Particulars: 1 minute with PRP. As to the method:
as §1, §2
The percentage inhibition of the platelet aggregation was calculated using the peak increase in light transmission observed over the 4 minute period following addition of collagen, as compared to that of control. This experiment was repeated using PRP from at least three human volunteers for each compound under study.

For data set [5], the system named is mean arterial pressure and heart rate of anesthetized rats. Nature of the data set: Systemic hemodynamic effects, intravenous, anesthetized rats (Example 9). It is filed as in vivo, rat (male Wistar). Here is the method: Among other effects, lowering of the blood pressure inside the blood vessels is beneficial for the treatment of congestive heart failure by reducing the vascular resistance of the blood flow which substantially reduces the work load imposed on the heart. […] This study involved the use of male Wistar rats anaesthetized with thiopentone sodium ([…]®, 120 mg kg^-1 i.p.). The trachea was cannulated to facilitate breathing.

For data set [6] the following is noted: background; cited from earlier work.

The structures appear in SMILES notation. Where “and” joins values, the source holds several entries; their conditions need not be identical. Equal values may be shown once. Entries after “also recorded” stand apart in the source; their conditions may differ. Read-outs that look alike come from different tables or passages of the source. A value given as a limit tells only on which side of the number the result lay.

For the molecule `CCCCCC(CCC1C(OC(C)=O)CC2Cc3c(cccc3OCC(=O)O)CC21)OC(C)=O` (stereo not drawn) [Compound 4, Compound X Diacetate], in data set [1] (after 15 minutes in PPP), the IC50 is 5 ± 0.2 µg/mL and the “increase in anti-platelet activity” value is recorded as around 10 fold. The “increase in activity on incubation with plasma or aqueous vehicle” value in data set [1] (initial ten (10) minute period, plasma or aqueous vehicle) is on record as around 10 fold. For the same molecule, the “effect of incubation with PPP on anti-platelet activity” value in data set [1] (up to 4 hours at 37° C) is “no further increase in activity; also recorded: this increase in activity was no greater after four (4) hours of incubation”. Further, in data set [2], the “effect of incubation with aqueous vehicle/saline/buffer on anti-platelet activity” value is “This effect was also observed during incubation of the compound in saline”. In addition, in data set [3] (1 mg/kg s.c.), the “effective life of the fall in MAP” value is above 300 min, the “maximum fall in MAP” value is on record as “about 26 mm Hg”, the “time of maximum fall in MAP” value worked out at 60 min and the “Time of second Δmax (superscript)” value turned out to be 210 min. Also, in data set [3] (1 mg/kg s.c.), the “Time of Δmax (superscript)” value is given as 60 min; the t1/2 is above 5 h; the “Δmax (Mean Arterial Pressure)” value is listed as 26 ± 6 mm Hg; the “Δmax, second value in parentheses” value is on record as 28 ± 7 mm Hg. Besides, the “Mean Arterial Pressure” value in data set [3] (1 mg/kg s.c.) was 87 ± 3 mm Hg and 94 ± 3 mm Hg. In data set [3] (1 mg/kg s.c., second fall), the “another fall in MAP” value is given as 28 mm Hg and the “time of another fall in MAP” value was 210 min. Further, in data set [3] (3 mg/kg s.c.), the “effective life of the fall in MAP” value is above 330 min, the “Time of Δmax (superscript)” value was 30 min, the t1/2 is above 5.5 h and the “Δmax (Mean Arterial Pressure)” value is given as 41 mm Hg. Moreover, in data set [3] (3 mg/kg s.c.), the “Mean Arterial Pressure” value was found to be 87 ± 4 mm Hg. Moreover, in data set [3] (10 mg/kg s.c.), the “effective life of the fall in MAP” value was above 300 min, the “Time of second Δmax (superscript)” value was 150 min, the “Time of Δmax (superscript)” value worked out at 60 min and the t1/2 was above 5 h. In data set [3] (10 mg/kg s.c.), the “Δmax (Mean Arterial Pressure)” value turned out to be 45 ± 5 mm Hg and the “Δmax, second value in parentheses” value is recorded as 48 ± 6 mm Hg. Moreover, in data set [4], the “inhibiting aggregation by 50% concentration (IC50)” value turned out to be 68 ± 2 µg/mL and the “inhibition of platelet aggregation, concentration dependence” value was “concentration-dependent inhibition of platelet aggregation”. Besides, in data set [4] (X 30 and 100 ng/ml, 4 300 μg/ml, 6 3 mg/ml, 7 10 mg/ml), the “inhibition of aggregation response at highest concentrations” value is recorded as “completely inhibited the aggregation response”. In data set [5] (1 mg/kg i.v.), the “effective life of the fall in MAP” value was “about 110 minutes”, the “maximum fall in MAP” value is reported as “about 30 mm Hg” and the “time of maximum fall in MAP” value came to 30 min. Also, the “effective life of the fall in MAP” value in data set [5] (comparison of Compound 4 with Compound X (1 mg/kg i.v.)) is recorded as “over 90 minutes”. The “fall in MAP” value in data set [5] (i.v., Compound X 1 mg/kg, Compound 4 1-10 mg/kg, others 3-30 mg/kg) was “rapid, dose-related fall in MAP; also recorded: rapid and substantial falls in MAP”.

Turning to `CCCCC[C@H](O)/C=C/[C@@H]1[C@H]2C/C(=C/CCCC(=O)O)O[C@H]2C[C@H]1O` [prostacyclin], the effective life entry in data set [6] is “less than six”.
